Laboratory results from publication PMC7646944 (2020).

What was measured:
[1] = tested on: SCA2.1–40 (DNA, aptamer) CTTACGACCTTAAGTGGGGTTCGGGTGGAGTTTATGGGGT; test: isothermal titration calorimetry
[2] = tested on: SCA2.1–34 (DNA, aptamer) ACCTTAAGTGGGGTTCGGGTGGAGTTTATGGGGT; test: isothermal titration calorimetry

KD [1]	KD [2]	Compound
0.65 ± 0.03 µM		CCC[C@H](C(=O)c1ccc2c(c1)OCO2)N1CCCC1
292 ± 14 µM	96 ± 4.0 µM	CCCC(C(=O)c1ccc2c(c1)OCO2)N1CCCC1 (stereo not drawn)
